Experimental data: patent publication US7705153B2, “Bipiperdine derivatives useful as CCR3 antagonists” (Schering Corporation, priority 2004, dated 2010)

What was measured:
human CCR3 [1] = target: T1, human CCR3 (Homo sapiens, UniProt P51677); assay: CCR3 SPA-based receptor binding assay; design: host or cells: Y3 cell line (rat), selected with G418; details: [125I]-eotaxin competition, membranes from human CCR3 transfected Y3 cell line
T1 sequence (P51677 1-355): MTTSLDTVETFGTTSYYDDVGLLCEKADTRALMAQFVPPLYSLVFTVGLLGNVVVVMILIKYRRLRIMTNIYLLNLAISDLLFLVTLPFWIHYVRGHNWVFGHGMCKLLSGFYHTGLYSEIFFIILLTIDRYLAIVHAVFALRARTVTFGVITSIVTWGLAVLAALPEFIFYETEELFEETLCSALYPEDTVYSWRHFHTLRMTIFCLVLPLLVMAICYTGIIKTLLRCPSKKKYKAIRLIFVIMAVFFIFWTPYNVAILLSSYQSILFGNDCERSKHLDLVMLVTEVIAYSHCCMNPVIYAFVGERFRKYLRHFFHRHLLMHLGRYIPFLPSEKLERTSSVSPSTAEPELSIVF
Protocol: CCR3 SPA-Based Receptor Binding Assay:
The procedure used was disclosed in Dairaghi et al, J. Biol. Chem., 272 (1997), pg. 28206-28209, and is described in detail below.
The source of the CCR3 receptors for this assay was purified membranes from a human CCR3 transfected Y3 cell line. Membranes were prepared by MDS Pharma Services (Bothell, Wash.) as follows. Cells were grown under selection (1 mg/ml G418) in 50-stack cube bioreactors with minimal media recirculation. Cells were harvested with trypsin and washed once with PBS. Cells were resuspended in 20 volumes of ice cold 2.5 mM Tris-HCl, pH 7.4 containing protease inhibitors (0.3 mM PMSF, 3 μg/ml aprotinin, 3 μg/ml luepeptin) and incubated on ice for 15 min. The swollen cells were lysed by vigorous vortexing and large debris was removed by centrifugation (1200 rpm, 5 min., 4° C.). The cleared lysate was subjected to ultra-centrifugation (100,000×g, 1 hr., 4° C.) to pellet the membrane fraction and the membrane fraction was resuspended in 25 mM HEPES, pH 7.6, 75 mM NaCl, 1 mM EDTA. Protease inhibitors were added as described above after a sample was removed for protein determination. The membrane preparation was brought to 6 to 10 mg/ml final concentration and BSA was added to 0.5%. Membranes were stored in 1 ml aliquots (−70° C.). […]

human CCR3 [2] = target: T1, human CCR3; assay: Intracellular calcium (Calcium flux, FLIPR) assay in CREM3 cells; format: cell-based; design: expressed in transfected cells; host or cells: CREM3 cells (rat Y3 cell line stably expressing human CCR3); details: CREM3 cells (human CCR3 in rat Y3 cell line)
Protocol: An IC50 value was interpolated from the dilution series for each compound and used to calculate a Ki value using the following equation: Ki=IC50/(1+[ligand]/Kd) Intracellular Calcium Assay: Cell Culture:
CREM3 cells, in which the human CCR3 receptor is stably expressed in the rat Y3 cell line, were cultured in DMEM high glucose containing 10% FBS, 50 U/ml penicillin, 50 μg/ml streptomycin, 2 mM L-glutamine, 1 mg/ml G418 (Gemini Bioproducts). Cells were cultured in fresh medium every 2 days.
Intracellular calcium levels were measured using a fluorometric imaging plate reader (FLIPR), (Molecular Devices, Sunnyvale Calif.) as described by the manufacturer. CREM3 cells were cultured overnight at 20,000 cells/well in 96 well black-wall clear bottom plates (Packard), precoated with 100 μg/ml poly D-lysine hydrobromide (Sigma). Adherent CREM3 cells were loaded with 4 μM Fluo-3 AM (Molecular Probes, Eugene, Oreg.), in pH 7.4 HBSS without phenol red, containing 20 mM HEPES, 0.5% FBS, 2.5 mM probenecid (Sigma), 0.04% pluronic acid (Molecular Probes) for 1 h at 37° C. […] Fluorescence data was collected at 1 s interval for 60 s, followed by collection at 2 s intervals for 60 s. Background fluorescence was quantitated in wells containing cells but no chemokines and was subtracted from all experimental samples. […]

Ki (human CCR3 [1]): 2.8 nM
IC50 (human CCR3 [2]): 3.6 nM
Compound: COc1ccc(C(=O)N2CCC(N3CC[C@@H](Cc4ccc(Cl)c(Cl)c4)[C@@H](CO)C3)CC2)c2cccnc12 (relative stereo) [Example 2-EE]
